# Measured values published in PubChem BioAssay AID2060333 (Molecular Pharmacology Branch, DTP, NCI, 2025).
# System: 845751-090-R-J2-PDC tumor spheroid viability
# Test: Anticancer human tumor 845751-090-R-J2-PDC patient-derived head and neck squamous carcinoma cell line growth inhibition [IpAb]
# Details: spheroids with HUVEC and MSC; for IC50: curve of first compound; for viability, T/C: stronger effect = lower value
# In short: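 Spheroids of 60% malignant cells, 25% HUVEC and 15% MSC were exposed to targeted agents combined with ipatasertib or abemaciclib. Doses started at or near clinical Cmax (10 microM when unknown) and fell in half-log steps.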
# [1] = second compound 0.01 µM, first compound 0.0316 µM
# [2] = second compound 0.01 µM, first compound 0.1 µM
# [3] = second compound 0.01 µM, first compound 0.316 µM
# [4] = second compound 0.01 µM, first compound 1 µM
# [5] = second compound 0.01 µM, first compound 3.16 µM
# [6] = second compound 0.01 µM, first compound 10 µM
# [7] = second compound 0.0316 µM, first compound 0.0316 µM
# [8] = second compound 0.0316 µM, first compound 0.1 µM
# [9] = second compound 0.0316 µM, first compound 0.316 µM
# [10] = second compound 0.0316 µM, first compound 1 µM
# [11] = second compound 0.0316 µM, first compound 3.16 µM
# [12] = second compound 0.0316 µM, first compound 10 µM
# [13] = second compound 0.1 µM, first compound 0.0316 µM
# [14] = second compound 0.1 µM, first compound 0.1 µM
# [15] = second compound 0.1 µM, first compound 0.316 µM
# [16] = second compound 0.1 µM, first compound 1 µM
# [17] = second compound 0.1 µM, first compound 3.16 µM
# [18] = second compound 0.1 µM, first compound 10 µM
# [19] = second compound 0.316 µM, first compound 0.0316 µM
# [20] = second compound 0.316 µM, first compound 0.1 µM
# [21] = second compound 0.316 µM, first compound 0.316 µM
# [22] = second compound 0.316 µM, first compound 1 µM
# [23] = second compound 0.316 µM, first compound 3.16 µM
# [24] = second compound 0.316 µM, first compound 10 µM
# [25] = second compound 1 µM, first compound 0.0316 µM
# [26] = second compound 1 µM, first compound 0.1 µM
# [27] = second compound 1 µM, first compound 0.316 µM
# [28] = second compound 1 µM, first compound 1 µM
# [29] = second compound 1 µM, first compound 3.16 µM
# [30] = second compound 1 µM, first compound 10 µM
# 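Further: spheroids exposed to compounds for 7 days before readout.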
# 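Wherever viability, T/C is given: CTG3D luminescence normalised so that 100% = DMSO vehicle control.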
Compound,IC50 (second compound 0.01 µM),IC50 (second compound 0.0316 µM),IC50 (second compound 0.1 µM),IC50 (second compound 0.316 µM),IC50 (second compound 1 µM),"viability, T/C [1]","viability, T/C [2]","viability, T/C [3]","viability, T/C [4]","viability, T/C [5]","viability, T/C [6]","viability, T/C [7]","viability, T/C [8]","viability, T/C [9]","viability, T/C [13]","viability, T/C [14]","viability, T/C [19]","viability, T/C [20]","viability, T/C [25]","viability, T/C [26]",other results
C=CC(=O)N1CCN(c2nc(=O)n(-c3c(C)ccnc3C(C)C)c3nc(-c4c(O)cccc4F)c(F)cc23)C(C)C1 (stereo not given) + CCN1CCN(Cc2ccc(Nc3ncc(F)c(-c4cc(F)c5nc(C)n(C(C)C)c5c4)n3)nc2)CC1,5850 nM,2250 nM,1690 nM,1870 nM,2250 nM,95.2%,96.3%,102%,82.3%,53.7%,46.9%,64%,84.3%,70.9%,67.2%,115%,61.5%,67.9%,62.6%,62.4%,"viability, T/C [10]: 66%; viability, T/C [11]: 43.3%; viability, T/C [12]: 31.7%; viability, T/C [15]: 74.6%; viability, T/C [16]: 56.1%; viability, T/C [17]: 46%; viability, T/C [18]: 27.2%; viability, T/C [21]: 72.5%; viability, T/C [22]: 55.7%; viability, T/C [23]: 43%; viability, T/C [24]: 16.9%; viability, T/C [27]: 72.2%; viability, T/C [28]: 59.9%; viability, T/C [29]: 45.4%; viability, T/C [30]: 28.4%"
Cn1ncc(Cl)c1-c1cc(C(=O)NC(CN)Cc2cccc(F)c2)sc1Cl (stereo not given) + CCN1CCN(Cc2ccc(Nc3ncc(F)c(-c4cc(F)c5nc(C)n(C(C)C)c5c4)n3)nc2)CC1,178 nM,94.7 nM,160 nM,170 nM,401 nM,97.8%,58%,34%,32.3%,8.93%,0.28%,90.9%,38.1%,30.7%,86.3%,56.7%,63.4%,72%,64.3%,75.1%,"viability, T/C [10]: 28.1%; viability, T/C [11]: 8.85%; viability, T/C [12]: 0.59%; viability, T/C [15]: 34.1%; viability, T/C [16]: 29.2%; viability, T/C [17]: 6.19%; viability, T/C [18]: 0.25%; viability, T/C [21]: 26.7%; viability, T/C [22]: 25.8%; viability, T/C [23]: 4.76%; viability, T/C [24]: 0.45%; viability, T/C [27]: 53.1%; viability, T/C [28]: 27.4%; viability, T/C [29]: 3.89%; viability, T/C [30]: 0.61%"
Cn1ncnc1[C@H]1c2n[nH]c(=O)c3cc(F)cc(c23)N[C@@H]1c1ccc(F)cc1 + CCN1CCN(Cc2ccc(Nc3ncc(F)c(-c4cc(F)c5nc(C)n(C(C)C)c5c4)n3)nc2)CC1,> 100 nM,73.1 nM,> 100 nM,85.4 nM,19.6 nM,92.1%,70.9%,–,–,–,–,63.5%,45%,–,75.7%,59.9%,57.8%,49.3%,46.4%,37.1%,"viability, T/C (second compound 0.01 µM, first compound 0.000316 µM): 71.6%; viability, T/C (second compound 0.01 µM, first compound 0.001 µM): 94%; viability, T/C (second compound 0.01 µM, first compound 0.00316 µM): 91.8%; viability, T/C (second compound 0.01 µM, first compound 0.01 µM): 83.1%; viability, T/C (second compound 0.0316 µM, first compound 0.000316 µM): 74.7%; viability, T/C (second compound 0.0316 µM, first compound 0.001 µM): 81.8%; viability, T/C (second compound 0.0316 µM, first compound 0.00316 µM): 69.7%; viability, T/C (second compound 0.0316 µM, first compound 0.01 µM): 78.8%; viability, T/C (second compound 0.1 µM, first compound 0.000316 µM): 71.9%; viability, T/C (second compound 0.1 µM, first compound 0.001 µM): 66.3%; viability, T/C (second compound 0.1 µM, first compound 0.00316 µM): 71.3%; viability, T/C (second compound 0.1 µM, first compound 0.01 µM): 69.7%; viability, T/C (second compound 0.316 µM, first compound 0.000316 µM): 63.6%; viability, T/C (second compound 0.316 µM, first compound 0.001 µM): 69.4%; viability, T/C (second compound 0.316 µM, first compound 0.00316 µM): 72.8%; viability, T/C (second compound 0.316 µM, first compound 0.01 µM): 55%; viability, T/C (second compound 1 µM, first compound 0.000316 µM): 58.8%; viability, T/C (second compound 1 µM, first compound 0.001 µM): 84.5%; viability, T/C (second compound 1 µM, first compound 0.00316 µM): 57.7%; viability, T/C (second compound 1 µM, first compound 0.01 µM): 57.1%"
